The values that follow come from patent US20230136562A1, “SPIROUREA DERIVATIVES” (Idorsia Pharmaceuticals Ltd, priority 2020, published 2023).

The subject of the assay is primary neuronal cultures from embryonic rat brains. Kind of assay: Rat oscillation assay (FLIPR, neuronal calcium oscillations). The format is cell-based. As to the method:
A) Rat Oscillation Assay:
This assay is a functional phenotypic assay designed to mimic epileptic seizures using primary neuronal cultures from embryonic rat brains, which form a functional neuronal network that generate synchronized intracellular calcium concentration oscillations when cultured at high density in 384-well plate. The epileptic phenotype is induced by incubating the neurons in magnesium-free assay buffer, that results in increased probability of NMDA receptor activation, leading to an increased frequency and amplitude of intracellular calcium oscillations. Once neurons are incubated with the calcium indicator dye Fluo-8 AM (Tebu-bio), neuronal calcium oscillations can be monitored in real time using FLIPR® Tetra (fluorometric plate reader, Molecular Devices). With these recordings, the effect of anti-epileptic drugs can be quantified. The anti-epileptic effect of compounds, which activate directly or indirectly the Kv7 channels can be modulated by the Kv7 channel blocker XE-991. The assay was performed as described previously (Pacico N, Mingorance-Le Meur A. New In Vitro Phenotypic Assay for Epilepsy: Fluorescent Measurement of Synchronized Neuronal Calcium Oscillations. PLoS ONE 9(1) 2014) with modifications described hereafter.
Animal care followed standard procedures in accordance with swiss institutional guidelines. Dissociated neuronal cultures were obtained from cerebral cortices of embryonic Wistar rats at embryonic stage E18 (Charles River). The uterine horns were removed by caesarian surgery from deeply anesthetized rats (Isofurane) and sacrificed by decapitation. The embryos were decapitated by closing forceps. The brains were isolated and dissected one by one in ice-cold PBS (Life Technologies) under optical control using a binocular. Meninges, olfactory bulbs, and basal ganglia were removed. Cortical hemispheres (still including the hippocampus) were cut in small pieces with tweezers and placed on ice in pre-chilled Hibernate-E medium (Life technology). The hemispheres were then incubated in 10 mL of Hibernate-E containing 15 U/mL papain (Worthington) for 25 min at 30° C. with gentle mixing every 10 min. Genomic DNA was then digested by prolonging the incubation during 10 min at 37° C. in presence of 4 U/mL rDNase I (Ambion). The obtained suspension was then centrifuged at 800 g for 5 min and the cell pellet was resuspended in 2 mL Hibernate-E and gently dissociated by pipetting up and down 10 times with a plastic Pasteur pipette resulting in a homogenous cell suspension. This suspension was immediately filtered through a 70 µm cell strainer (MACS® SmartStrainer, Miltenyi), collected in 10 mL Hibernate-E and centrifuged at 800 g for 5 min. The cell pellet was resuspended in Neurobasal medium, supplemented with 2% B-27, 0.5 mM Glutamax-I, 100 U/mL penicillin, 100 µg/mL streptomycin (Life Technologies) and diluted at the final concentration of 300′000 cells/mL. One day before plating the cells, 384-well plates were coated with 25 μL/well of 0.1% poly-L-lysine solution (Sigma), incubated overnight at 37° C., washed two times with sterile distilled water and allowed to dry at room temperature for >2 h. The neurons were seeded at a density of 15′000 cells/well in 50 μL/well in a 384-well black, clear-bottomed plates (Corning) and subsequently maintained in an incubator at 37° C., 5% CO2 and 95% humidity for 8 to 10 days. After 3 and 7 days, 40% of media was renewed under sterile conditions.
Protocol Rat Oscillation Assay
Neurons seeded in the assay plates were washed with Hank's balanced salt solution (HBSS) devoid of Ca^2+ and Mg^2+, supplemented with 20 mM HEPES (Life Technologies) and 2 mM CaCl2 (Sigma), pH 7.4 (hereafter called Assay buffer) using a Biotek EL406 plate washer. Neurons were loaded with 1 μM Fluo-8 AM in Assay buffer for 15 min at 37° C., 5% CO2. […]

Setting [1] is: Rattus norvegicus, 20 min, AUC of fluorescence measured 20 min after compound addition, read-out: FLIPR: IC50 [nM] 20 min.
Where [2] appears, read: Rattus norvegicus, Acute phase, ratio of AUC fluorescence before and after compound addition, read-out: FLIPR: IC50 [nM] acute.
Where [3] appears, read: AUC of fluorescence measured 20 min after compound addition, read-out: FLIPR: IC50 [nM] 20 min.
The mark [4] stands for this setting: Acute phase, ratio of AUC fluorescence before and after compound addition, read-out: FLIPR: IC50 [nM] acute.

Where two headings read alike, the source gives them in different places.

With `O=C(NCc1cccc(OC(F)(F)F)c1)NC1CC2(CCC2)C1` [Example 41, 1-Spiro[3.3]hept-2-yl-3-(3-trifluoromethoxy-benzyl)-urea], the half-inhibitory concentration (IC50) is, setting by setting: under setting [1], 25 nM; under setting [2], 44 nM.
Regarding `O=C(NC1CC2(CCC2)C1)NC(CCO)c1cccc(OCC(F)(F)F)c1` (racemic) [Example 88, (±)-1-{3-Hydroxy-1-[3-(2,2,2-trifluoro-ethoxy)-phenyl]-propyl}-3-spiro[3.3]hept-2-yl-urea], the concentration for half-maximal inhibition (IC50) reads like this: under setting [1], 28 nM; under setting [2], 45 nM.
Consider `Cn1nncc1C(NC(=O)NC1CC2(CCC2)C1)c1cccc(C(F)(F)F)c1` (racemic) [Example 165, (±)-1-[(3-Methyl-3H-[1,2,3]triazol-4-yl)-(3-trifluoromethyl-phenyl)-methyl]-3-spiro[3.3] hept-2-yl-urea], for which the IC50 under setting [1] was found to be 289 nM and the 50% inhibitory concentration (IC50) under setting [2] turned out to be 145 nM.
Turning to `COCC(Oc1cc(CNC(=O)NC2CC3(CCC3)C2)ccn1)C(F)(F)F` (single isomer, unassigned) [Example 171, 1-Spiro[3.3]hept-2-yl-3-[2-(2,2,2-trifluoro-1-methoxymethyl-ethoxy)-pyridin-4-ylmethyl]-urea], the IC50 runs as follows: under setting [3], 377 nM; under setting [4], 252 nM.
As to `Cc1nc(OCC(F)(F)F)cc(C(C)NC(=O)NC2CC3(CCC3)C2)n1` (racemic) [Example 68, (±)-1-{1-[2-Methyl-6-(2,2,2-trifluoro-ethoxy)-pyrimidin-4-yl]-ethyl}-3-spiro[3.3]hept-2-yl-urea], the IC50 by setting is: under setting [1], 18 nM; under setting [2], 18 nM.
On to `COCC(Oc1cc(CNC(=O)NC2CC3(CCC3)C2)ccn1)C(F)(F)F` (racemic) [Example 107, (±)-1-Spiro[3.3]hept-2-yl-3-[2-(2,2,2-trifluoro-1-methoxymethyl-ethoxy)-pyridin-4-ylmethyl]-urea], for which the IC50 worked out at 91 nM under setting [1] and 72 nM under setting [2].
Consider `CSCCC(NC(=O)NC1CC2(CCC2)C1)c1cccc(C(F)(F)F)c1` (racemic) [Example 75, (±)-1-[3-Methylsulfanyl-1-(3-trifluoromethyl-phenyl)-propyl]-3-spiro[3.3]hept-2-yl-urea], for which the IC50 reads like this: under setting [1], 129 nM; under setting [2], 106 nM.
Taken in the same sequence, the figures for `COc1ccc(C(F)(F)F)cc1C(C)NC(=O)NC1CC2(CCC2)C1` (racemic) [Example 20, (±)-1-[1-(2-Methoxy-5-trifluoromethyl-phenyl)-ethyl]-3-spiro[3.3]hept-2-yl-urea] were 304 nM and 508 nM.
For `O=C(NC1CC2(CCC2)C1)NC(CO)c1cccc(OCC(F)(F)F)c1` (racemic) [Example 87, (±)-1-{2-Hydroxy-1-[3-(2,2,2-trifluoro-ethoxy)-phenyl]-ethyl}-3-spiro[3.3]hept-2-yl-urea], the concentration for half-maximal inhibition (IC50) is, setting by setting: under setting [1], 12 nM; under setting [2], 21 nM.
Consider `C[C@H](NC(=O)NC1CC2(CCC2)C1)c1cc(C(F)(F)F)ccc1Br` (single isomer, unassigned) [Example 190], for which the half-inhibitory concentration (IC50) under setting [1] was 200 nM and the half-maximal inhibitory concentration (IC50) under setting [2] was determined as 286 nM. For the same compound, the “activity compared with the (R) enantiomer” value (assay not given) is listed as “more active than the (R) enantiomer”.
`CC(NC(=O)NC1CC2(C1)CC(F)(F)C2)c1cccc(C(F)(F)F)c1` (racemic) [Example 161, (±)-1-(6,6-Difluoro-spiro[3.3]hept-2-yl)-3-[1-(3-trifluoromethyl-phenyl)-ethyl]-urea]: the concentration for half-maximal inhibition (IC50) was determined as 97 nM under setting [1] and 78 nM under setting [2].
Regarding `COc1ccc(C(F)(F)F)cc1CNC(=O)NC1CC2(CC2)C1` [Example 125, 1-(2-Methoxy-5-trifluoromethyl-benzyl)-3-spiro[2.3]hex-5-yl-urea], the IC50 turned out to be 1990 nM under setting [1] and 1820 nM under setting [2].
With `COCC(NC(=O)NC1CC2(CC2)C1)c1cccc(C(F)(F)F)c1` (racemic) [Example 147, (±)-1-[2-Methoxy-1-(3-trifluoromethyl-phenyl)-ethyl]-3-spiro[2.3]hex-5-yl-urea], the IC50 is, setting by setting: under setting [1], 23 nM; under setting [2], 18 nM.
Regarding `CC(Oc1cc(F)cc(CNC(=O)NC2CC3(CCC3)C2)c1)C(F)(F)F` (racemic) [Example 110, (±)-1-[3-Fluoro-5-(2,2,2-trifluoro-1-methyl-ethoxy)-benzyl]-3-spiro[3.3]hept-2-yl-urea], the IC50 is, setting by setting: under setting [1], 62 nM; under setting [2], 88 nM.
Turning to `O=C(NC1CC2(CCC2)C1)NC(c1cccc(C(F)(F)F)c1)c1nc[nH]n1` (stereo not drawn) [Example 56, 1-Spiro[3.3]hept-2-yl-3-[(1H-[1,2,4]triazol-3-yl)-(3-trifluoromethyl-phenyl)-methyl]-urea], the half-maximal inhibitory concentration (IC50) reads like this: under setting [1], 9.7 nM; under setting [2], 27 nM.
`COC[C@H](NC(=O)NC1CC2(CCC2)C1)c1ccnc(OC(F)F)c1` (single isomer, unassigned) [Example 187]: the concentration for half-maximal inhibition (IC50) under setting [1] was found to be 3.9 nM and the IC50 under setting [2] was 2.7 nM.
Consider `CS(=O)(=O)CCC(NC(=O)NC1CC2(CCC2)C1)c1cccc(C(F)(F)F)c1` (racemic) [Example 81, (±)-1-[3-Methanesulfonyl-1-(3-trifluoromethyl-phenyl)-propyl]-3-spiro[3.3]hept-2-yl-urea], for which the IC50 worked out at 941 nM under setting [1] and 2180 nM under setting [2].
As for `O=C(NCc1ccnc(OCC(F)(F)F)n1)NC1CC2(CCC2)C1` [Example 70, 1-Spiro[3.3]hept-2-yl-3-[2-(2,2,2-trifluoro-ethoxy)-pyrimidin-4-ylmethyl]-urea], the IC50 was determined as 546 nM under setting [1] and 219 nM under setting [2].
For `O=C(NCc1cccc(COC(F)(F)F)c1)NC1CC2(CCC2)C1` [Example 43, 1-Spiro[3.3]hept-2-yl-3-(3-trifluoromethoxymethyl-benzyl)-urea], the half-maximal inhibitory concentration (IC50) reads like this: under setting [1], 22 nM; under setting [2], 16 nM.
Take `CN(C)CC(Oc1cccc(CNC(=O)NC2CC3(CCC3)C2)n1)C(F)(F)F` (racemic) [Example 105, (±)-1-[6-(1-Dimethylaminomethyl-2,2,2-trifluoro-ethoxy)-pyridin-2-ylmethyl]-3-spiro[3.3]hept-2-yl-urea]: the half-maximal inhibitory concentration (IC50) reads like this: under setting [1], 261 nM; under setting [2], 278 nM.
In the case of `CC(Oc1nccc(CNC(=O)NC2CC3(CCC3)C2)n1)C(F)(F)F` (single isomer, unassigned) [Example 180, 1-Spiro[3.3]hept-2-yl-3-[2-(-2,2,2-trifluoro-1-methyl-ethoxy)-pyrimidin-4-ylmethyl]-urea], the half-inhibitory concentration (IC50) under setting [3] was determined as 78 nM and the IC50 under setting [4] worked out at 62 nM.
Take `Cc1nc(OCC(F)(F)F)cc(C(CO)NC(=O)NC2CC3(CCC3)C2)n1` (racemic) [Example 82, (±)-1-{2-Hydroxy-1-[2-methyl-6-(2,2,2-trifluoro-ethoxy)-pyrimidin-4-yl]-ethyl}-3-spiro[3.3]hept-2-yl-urea]: the IC50 runs as follows: under setting [1], 59 nM; under setting [2], 66 nM.
Take `O=C(NCc1cccc(OCC(F)(F)F)c1)NC1CC2(CCC2)C1` [Example 14, 1-Spiro[3.3]hept-2-yl-3-[3-(2,2,2-trifluoro-ethoxy)-benzyl]-urea]: the IC50 reads like this: under setting [1], 27 nM; under setting [2], 31 nM.
In the same order, the values of `O=C(NCc1cccc(C(F)(F)F)c1F)NC1CC2(CCC2)C1` [Example 12, 1-(2-Fluoro-3-trifluoromethyl-benzyl)-3-spiro[3.3]hept-2-yl-urea] are 55 nM and 36 nM.
For the compound `COCC(NC(=O)NC1CC2(CCC2)C1)c1cccc(OCC(F)(F)F)c1` (racemic) [Example 91, (±)-1-{2-Methoxy-1-[3-(2,2,2-trifluoro-ethoxy)-phenyl]-ethyl}-3-spiro[3.3]hept-2-yl-urea], the IC50 runs as follows: under setting [1], 1.4 nM; under setting [2], 3.4 nM.

As usually defined, the IC50 is the concentration that inhibits the measured activity by half.
